Source: patent US20250101019A1 (Insilico Medicine IP Limited, priority 2022, published 2025)

Assays:
ENPP1 [1] = biological target: T1, ENPP1 (Homo sapiens (Human), UniProt P22413); assay: ATP-Glo enzymatic assay (ATP substrate, AMP-Glo readout); type: biochemical; details: 25° C. for 60 min, 50 mM Tris pH 8.8
Description: (§1) Example A: Enzymatic Assay
(§2) • 1. Diluted compounds in DMSO by hand for 11 points, 3 folds dilution. Then transferred 0.02 μL compounds to 384 assay plate by ECHO. • 2. Added 2 μL specified concentration of ENPP1 to 384 assay plate. Centrifuged 1000 RPM for 1 min. • 3. Added 2 μL specified concentration of ATP to the assay plate. Centrifuged 1000 RPM for 1 min. • 4. Incubated at 25° C. for 60 min. • 5. Added 4 μL AMP-Glo Reagent to the assay plates. • 6. Centrifuged 1000 RPM for 1 min, incubate at 25° C. for 1 hours. • 7. Added 8 μL Kinase Detection Reagent to the assay plates. • 8. Centrifuged 1000 RPM for 1 min, incubated at 25° C. for 1 hours. The final assay reaction mixture contained a buffer of 50 mM Tris pH 8.8, 250 mM NaCl and 0.1% BSA • 9. Read on Envision for US LUM as RLU. • 10. Analyzed the raw data using the equation (V. Data analysis). cGAMP-Glo Assay: • 1. Diluted compounds in DMSO by hand for 11 points, 3 folds dilution. Then transferred 0.02 μL compounds to 384 assay plate by ECHO. • 2. Added 2 μL specified concentration of ENPP1 to 384 assay plate, centrifuged 1000 RPM for 1 min. • 3. Added 2 μL specified concentration of 2′3′-cGAMP to the assay plate, centrifuged 1000 RPM for 1 min. • 4. Incubated at 25° C. for 60 min. • 5. Added 4 μL AMP-Glo Reagent to the assay plates. • 6. Centrifuged 1000 RPM for 1 min, incubated at 25° C. for 1 hours. • 7. Added 8 μL Kinase Detection Reagent to the assay plates. • 8. Centrifuged 1000 RPM for 1 min, incubate at 25° C. for 1 hours. The final assay reaction mixture contained a buffer of 50 mM Tris pH 8.8, 250 mM NaCl and 0.1% BSA • 9. Read on Envision for US LUM as RLU. • 10. Analyzed the raw data using the equation (V. Data analysis).

ENPP1 [2] = biological target: T1, ENPP1; assay: cGAMP-Glo enzymatic assay (2′3′-cGAMP substrate, AMP-Glo readout); type: biochemical; details: substrate 2′3′-cGAMP; 25° C. for 60 min; 50 mM Tris pH 8.8
Description: as §1, §2

T1 sequence (P22413 whole entry, species assumed): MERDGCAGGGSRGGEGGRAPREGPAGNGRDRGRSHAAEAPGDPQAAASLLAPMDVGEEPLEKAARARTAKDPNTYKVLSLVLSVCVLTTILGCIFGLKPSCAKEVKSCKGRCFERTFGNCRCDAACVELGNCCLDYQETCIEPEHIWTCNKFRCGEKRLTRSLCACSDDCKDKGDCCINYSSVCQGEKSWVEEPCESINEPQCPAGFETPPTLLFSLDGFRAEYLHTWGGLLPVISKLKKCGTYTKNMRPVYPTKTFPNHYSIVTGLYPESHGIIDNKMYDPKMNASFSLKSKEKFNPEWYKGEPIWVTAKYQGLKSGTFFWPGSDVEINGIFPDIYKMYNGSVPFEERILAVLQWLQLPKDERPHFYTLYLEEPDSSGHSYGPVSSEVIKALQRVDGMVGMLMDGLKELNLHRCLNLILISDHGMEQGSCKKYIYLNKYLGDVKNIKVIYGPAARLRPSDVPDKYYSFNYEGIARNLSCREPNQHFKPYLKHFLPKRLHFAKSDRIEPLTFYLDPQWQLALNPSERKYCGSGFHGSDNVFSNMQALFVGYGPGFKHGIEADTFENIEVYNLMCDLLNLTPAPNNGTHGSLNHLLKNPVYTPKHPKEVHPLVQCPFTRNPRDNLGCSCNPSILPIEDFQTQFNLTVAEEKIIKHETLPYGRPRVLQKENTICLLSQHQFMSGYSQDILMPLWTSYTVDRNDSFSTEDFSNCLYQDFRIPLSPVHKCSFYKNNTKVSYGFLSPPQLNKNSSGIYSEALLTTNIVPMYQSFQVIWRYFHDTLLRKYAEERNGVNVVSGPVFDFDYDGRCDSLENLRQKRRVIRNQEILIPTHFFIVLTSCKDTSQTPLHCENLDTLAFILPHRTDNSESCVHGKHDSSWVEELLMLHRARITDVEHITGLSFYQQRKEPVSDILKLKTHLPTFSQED

IC50 (ENPP1 [1]) [nM]	IC50 (ENPP1 [2]) [nM]	Molecule
< 1	< 1	Cc1ncc2c(c1-c1ccccc1)n(Cc1c(F)cc(S(N)(=O)=O)cc1F)c(=O)n2C [Example 59, 4-((3,6-dimethyl-2-oxo-7-phenyl-2,3-dihydro-1H-imidazo[4,5-c]pyridin-1-yl)methyl)-3,5-difluorobenzenesulfonamide]
< 1	< 1	Cc1ncc2c(c1-c1ccccc1)n(Cc1ncc(S(N)(=O)=O)cc1F)c(=O)n2C [Example 79, 6-((3,6-dimethyl-2-oxo-7-phenyl-2,3-dihydro-1H-imidazo[4,5-c]pyridin-1-yl)methyl)-5-fluoropyridine-3-sulfonamide]
< 1	< 1	Cc1nc2cncc(-c3ccccc3)c2n1Cc1ccc(S(N)(=O)=O)cc1 [Example 40, 4-((2-methyl-7-phenyl-1H-imidazo[4,5-c]pyridin-1-yl)methyl)benzene sulfonamide]
< 1	< 1	COc1ncc2nc(C)n(Cc3ccc(S(N)(=O)=O)cc3)c2c1-c1ccccc1 [Example 22, 4-((6-methoxy-2-methyl-7-phenyl-1H-imidazo[4,5-c]pyridin-1-yl)methyl)benzenesulfonamide]
1 to 10	1 to 10	COc1ncc2c(C)cn(Cc3ccc(S(N)(=O)=O)cc3)c2c1-c1ccn(C)n1 [Example 6, 4-((6-methoxy-3-methyl-7-(1-methyl-1H-pyrazol-3-yl)-1H-pyrrolo[3,2-c]pyridin-1-yl)methyl)benzenesulfonamide]
< 1	< 1	COc1ncc2nc(C(F)(F)F)n(Cc3ccc(S(N)(=O)=O)cn3)c2c1-c1ccccc1 [Example 77]
1 to 10	1 to 10	COc1ncc2nc(C)n(C(C)c3ccc(S(N)(=O)=O)cc3)c2c1-c1ccccc1 (stereo not drawn) [Example 35, 4-(1-(6-methoxy-2-methyl-7-phenyl-1H-imidazo[4,5-c]pyridin-1-yl)ethyl) benzenesulfonamide]
> 1000	100 to 1000	Cc1ncc2ccn(Cc3ccc(NS(N)(=O)=O)cc3)c2c1-c1ccn(C)n1 [Example 2, N-(4-((6-methyl-7-(1-methyl-1H-pyrazol-3-yl)-1H-pyrrolo[3,2-c]pyridin-1-yl)methyl)phenyl) sulfamide]
< 1	< 1	Cc1ncc2nc(CF)n(Cc3c(F)cc(S(N)(=O)=O)cc3F)c2c1-c1ccccc1 [Example 47, 3,5-difluoro-4-((2-(fluoromethyl)-6-methyl-7-phenyl-1H-imidazo[4,5-c]pyridin-1-yl)methyl)benzenesulfonamide]
< 1	< 1	Cc1ncc2nc(C)n(Cc3c(F)cc(S(N)(=O)=O)cc3F)c2c1C1=CCCC1 [Example 58, 4-((7-(cyclopent-1-en-1-yl)-2,6-dimethyl-1H-imidazo[4,5-c]pyridin-1-yl)methyl)-3,5-difluorobenzenesulfonamide]
< 1	< 1	Cc1ncc2nc(C)n(Cc3c(F)cc(S(N)(=O)=O)cc3F)c2c1C1CC1 [Example 52, 4-((7-cyclopropyl-2,6-dimethyl-1H-imidazo[4,5-c]pyridin-1-yl)methyl)-3,5-difluorobenzenesulfonamide]
10 to 100	10 to 100	COc1ncc2c(C)cn(Cc3ccc(S(N)(=O)=O)cc3)c2c1-c1ccc(F)cc1 [Example 12]
< 1	< 1	COc1ncc2ncn(Cc3ccc(S(N)(=O)=O)cc3)c2c1-c1ccccc1 [Example 23, 4-((6-methoxy-7-phenyl-1H-imidazo[4,5-c]pyridin-1-yl)methyl)benzenesulfonamide]
< 1	< 1	CCc1ncc2nc(C)n(Cc3c(F)cc(S(N)(=O)=O)cc3F)c2c1-c1ccccc1 [Example 48, 4-((6-ethyl-2-methyl-7-phenyl-1H-imidazo[4,5-c]pyridin-1-yl)methyl)-3,5-difluorobenzenesulfonamide]
< 1	< 1	COc1ncc2nc(C(F)F)n(Cc3ncc(S(N)(=O)=O)cc3F)c2c1-c1ccccc1 [Example 76, 6-((2-(difluoromethyl)-6-methoxy-7-phenyl-1H-imidazo[4,5-c]pyridin-1-yl)methyl)-5-fluoropyridine-3-sulfonamide]
< 1	< 1	Cc1ncc2nc(C)n(Cc3ncc(S(N)(=O)=O)cc3F)c2c1-c1ccccc1 [Example 68, 6-((2,6-dimethyl-7-phenyl-1H-imidazo[4,5-c]pyridin-1-yl)methyl)-5-fluoropyridine-3-sulfonamide]
< 1	< 1	Cc1ncc2nc(C3CC3)n(Cc3ccc(S(N)(=O)=O)nc3)c2c1-c1ccccc1 [Example 54, 5-((2-cyclopropyl-6-methyl-7-phenyl-1H-imidazo[4,5-c]pyridin-1-yl)methyl)pyridine-2-sulfonamide]
< 1	< 1	Cc1ncc2nc(C)n(Cc3ccc(S(N)(=O)=O)cc3)c2c1-c1ccccc1 [Example 31, 4-((2,6-dimethyl-7-phenyl-1H-imidazo[4,5-c]pyridin-1-yl)methyl)benzene sulfonamide]
< 1	< 1	Cc1ncc2nc(C)n(Cc3c(F)cc(S(N)(=O)=O)cc3F)c2c1-c1ccc(F)cc1 [Example 46, 3,5-difluoro-4-((7-(4-fluorophenyl)-2,6-dimethyl-1H-imidazo[4,5-c]pyridin-1-yl)methyl)benzenesulfonamide]
< 1	< 1	COc1ncc2nc(C(F)(F)F)n(Cc3ncc(S(N)(=O)=O)cc3F)c2c1-c1ccccc1 [Example 78, 5-fluoro-6-((6-methoxy-7-phenyl-2-(trifluoromethyl)-1H-imidazo[4,5-c]pyridin-1-yl)methyl)pyridine-3-sulfonamide]
< 1	< 1	Cc1ncc2nc(C(F)F)n(Cc3ccc(S(N)(=O)=O)cn3)c2c1-c1ccccc1 [Example 71]
< 1	< 1	Cc1ncc2c(c1-c1ccccc1)n(Cc1ccc(S(N)(=O)=O)cc1)c(=O)n2C [Example 20, 4-((3,6-dimethyl-2-oxo-7-phenyl-2,3-dihydro-1H-imidazo[4,5-c]pyridin-1-yl)methyl)benzenesulfonamide]
< 1	< 1	COc1ncc2nc(C(F)F)n(Cc3ccc(S(N)(=O)=O)cn3)c2c1-c1ccccc1 [Example 75, 6-((2-(difluoromethyl)-6-methoxy-7-phenyl-1H-imidazo[4,5-c]pyridin-1-yl)methyl)pyridine-3-sulfonamide]
< 1	< 1	COc1ncc2nc(C)n(Cc3ccc(S(N)(=O)=O)c(F)c3)c2c1-c1ccccc1 [Example 36, 2-fluoro-4-((6-methoxy-2-methyl-7-phenyl-1H-imidazo[4,5-c]pyridin-1-yl)methyl)benzenesulfonamide]
< 1	< 1	COc1ncc2c(c1C1=CCCC1)n(Cc1c(F)cc(S(N)(=O)=O)cc1F)c(=O)n2C [Example 61, 4-((7-(cyclopent-1-en-1-yl)-6-methoxy-3-methyl-2-oxo-2,3-dihydro-1H-imidazo[4,5-c]pyridin-1-yl)methyl)-3,5-difluorobenzenesulfonamide]
< 1	< 1	Cc1ncc2nc(C3CC3)n(Cc3ncc(S(N)(=O)=O)cc3F)c2c1-c1ccccc1 [Example 70, 6-((2-cyclopropyl-6-methyl-7-phenyl-1H-imidazo[4,5-c]pyridin-1-yl)methyl)-5-fluoropyridine-3-sulfonamide]
< 1	< 1	COc1ncc2c(c1-c1ccccc1)N(Cc1c(F)cc(S(N)(=O)=O)cc1F)C(=O)C2 [Example 57, 3,5-difluoro-4-((6-methoxy-2-oxo-7-phenyl-2,3-dihydro-1H-pyrrolo[3,2-c]pyridin-1-yl)methyl)benzenesulfonamide]
< 1	< 1	COc1ncc2ccn(Cc3ccc(S(N)(=O)=O)cc3)c2c1-c1ccccc1 [Example 9, 4-((6-methoxy-7-phenyl-1H-pyrrolo[3,2-c]pyridin-1-yl)methyl)benzene sulfonamide]
100 to 1000	10 to 100	COc1ncc2c(C)cn(Cc3ccc(NS(N)(=O)=O)cc3)c2c1-c1ccn(C)n1 [Example 1, N-(4-((6-methoxy-3-methyl-7-(1-methyl-1H-pyrazol-3-yl)-1H-pyrrolo[3,2-c]pyridin-1-yl)methyl)phenyl) sulfamide]

Molecule	IC50 (ENPP1 [1]) [nM]	IC50 (ENPP1 [2]) [nM]
4-((6-cyano-2-methyl-7-phenyl-1H-imidazo[4,5-c]pyridin-1-yl)methyl)benzenesulfonamide [Example 41]	< 1	< 1
